Experimental data taken from patent US10681909B2, “Herbicidal triazoles” (FMC Corporation, priority 2014, dated 2020).

How the values were obtained:
barnyardgrass [1] = assay: Test B flooded paddy test; assay type: in vivo, Echinochloa crus-galli; settings: 250 g ai/ha, applied to paddy water at 2-leaf stage, visual rating after 13 to 15 d, scale 0 (no effect) to 100 (complete control)
Method in brief: (§1)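 Pots were flooded to 3 cm above the soil at treatment, and compounds were applied directly into the paddy water. That depth was held throughout. After 13 to 15 d in a greenhouse, plants were rated visually against untreated controls.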

nutsedge, yellow = assay: Test C postemergence; assay type: in vivo, Cyperus esculentus
Method in brief: (§2)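 Preemergence: seeds sown in loam soil–sand blend and treated with test chemicals formulated in a non-phytotoxic solvent mixture containing a surfactant. Postemergence: plants grown in peat moss/vermiculite-based medium and sprayed with the same formulation at 2 to 18 cm height (1- to 4-leaf stage).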

velvetleaf = assay: Test C postemergence; assay type: in vivo, Abutilon theophrasti
Method in brief: as §2

pigweed [2] = assay: Test C postemergence; assay type: in vivo, Amaranthus retroflexus
Method in brief: as §2

lambsquarters = assay: Test C postemergence; assay type: in vivo, Chenopodium album
Method in brief: as §2

morningglory = assay: Test C postemergence; assay type: in vivo, Ipomoea coccinea
Method in brief: as §2

kochia = assay: Test C postemergence; assay type: in vivo, Kochia scoparia
Method in brief: as §2

foxtail, giant [3] = assay: Test C postemergence; assay type: in vivo, Setaria faberii
Method in brief: as §2

barnyardgrass [4] = assay: Test A postemergence; assay type: in vivo, Echinochloa crus-galli; settings: 0 to 100 scale (0 no effect, 100 complete control), approx. 10 d
Method in brief: (§3)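 Plant seeds in loam soil blended with sand, then apply test chemical preemergence as a directed soil spray; in parallel, spray potted seedlings (one- to two-leaf, 2 to 10 cm) postemergence. Both treatments use a non-phytotoxic solvent mixture with surfactant.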

foxtail, giant [5] = assay: Test A preemergence; assay type: in vivo, Setaria faberii; settings: 0 to 100 scale (0 no effect, 100 complete control)
Method in brief: as §3

wheat (winter wheat) = assay: Test C postemergence; assay type: in vivo, Triticum aestivum
Method in brief: as §2

rice = assay: Test B flooded paddy test; assay type: in vivo, Oryza sativa; settings: 250 g ai/ha, applied to paddy water at 2-leaf stage, visual rating after 13 to 15 d, scale 0 (no effect) to 100 (complete control)
Method in brief: as §1

oilseed rape = assay: Test C postemergence; assay type: in vivo, Brassica napus; settings: Oilseed Rape
Method in brief: as §2

johnsongrass = assay: Test C postemergence; assay type: in vivo, Sorghum halepense
Method in brief: as §2

oat, wild = assay: Test C postemergence; assay type: in vivo, Avena fatua
Method in brief: as §2

ragweed = assay: Test C postemergence; assay type: in vivo, Ambrosia elatior
Method in brief: as §2

chickweed = assay: Test C postemergence; assay type: in vivo, Stellaria media
Method in brief: as §2

corn = assay: Test A postemergence; assay type: in vivo, Zea mays; settings: 0 to 100 scale (0 no effect, 100 complete control), approx. 10 d
Method in brief: as §3

crabgrass, large = assay: Test C postemergence; assay type: in vivo, Digitaria sanguinalis
Method in brief: as §2

pigweed [6] = assay: Test A postemergence; assay type: in vivo, Amaranthus retroflexus; settings: 0 to 100 scale (0 no effect, 100 complete control), approx. 10 d
Method in brief: as §3

## CCOc1nc(-c2ccc(Cl)cc2)nn1Cc1ccnc(C(F)(F)F)c1 [Compound 26]
Barnyardgrass [1]
  Plant response rating, Barnyardgrass, Flood: 50
nutsedge, yellow; 16 g ai/ha
  Plant response rating (scale of 0 to 100 where 0 is no effect and 100 is complete control): 15
nutsedge, yellow; 31 g ai/ha
  Plant response rating (scale of 0 to 100 where 0 is no effect and 100 is complete control): 25
nutsedge, yellow; 62 g ai/ha
  Plant response rating (scale of 0 to 100 where 0 is no effect and 100 is complete control): 30
nutsedge, yellow; 125 g ai/ha
  Plant response rating (scale of 0 to 100 where 0 is no effect and 100 is complete control): 20
velvetleaf; 16 g ai/ha
  Plant response rating (scale of 0 to 100 where 0 is no effect and 100 is complete control): 60
velvetleaf; 31 g ai/ha
  Plant response rating (scale of 0 to 100 where 0 is no effect and 100 is complete control): 60
velvetleaf; 62 g ai/ha
  Plant response rating (scale of 0 to 100 where 0 is no effect and 100 is complete control): 65
velvetleaf; 125 g ai/ha
  Plant response rating (scale of 0 to 100 where 0 is no effect and 100 is complete control): 70
Pigweed [2]; 16 g ai/ha
  Plant response rating (scale of 0 to 100 where 0 is no effect and 100 is complete control): 95
Pigweed [2]; 31 g ai/ha
  Plant response rating (scale of 0 to 100 where 0 is no effect and 100 is complete control): 95
Pigweed [2]; 62 g ai/ha
  Plant response rating (scale of 0 to 100 where 0 is no effect and 100 is complete control): 98
Pigweed [2]; 125 g ai/ha
  Plant response rating (scale of 0 to 100 where 0 is no effect and 100 is complete control): 98
lambsquarters; 16 g ai/ha
  Plant response rating (scale of 0 to 100 where 0 is no effect and 100 is complete control): 100
lambsquarters; 31 g ai/ha
  Plant response rating (scale of 0 to 100 where 0 is no effect and 100 is complete control): 100
lambsquarters; 62 g ai/ha
  Plant response rating (scale of 0 to 100 where 0 is no effect and 100 is complete control): 100
lambsquarters; 125 g ai/ha
  Plant response rating (scale of 0 to 100 where 0 is no effect and 100 is complete control): 100
morningglory; 16 g ai/ha
  Plant response rating (scale of 0 to 100 where 0 is no effect and 100 is complete control): 90
morningglory; 31 g ai/ha
  Plant response rating (scale of 0 to 100 where 0 is no effect and 100 is complete control): 90
morningglory; 62 g ai/ha
  Plant response rating (scale of 0 to 100 where 0 is no effect and 100 is complete control): 75
morningglory; 125 g ai/ha
  Plant response rating (scale of 0 to 100 where 0 is no effect and 100 is complete control): 85
kochia; 16 g ai/ha
  Plant response rating (scale of 0 to 100 where 0 is no effect and 100 is complete control): 85
kochia; 31 g ai/ha
  Plant response rating (scale of 0 to 100 where 0 is no effect and 100 is complete control): 90
kochia; 62 g ai/ha
  Plant response rating (scale of 0 to 100 where 0 is no effect and 100 is complete control): 90
kochia; 125 g ai/ha
  Plant response rating (scale of 0 to 100 where 0 is no effect and 100 is complete control): 90
foxtail, giant [3]; 16 g ai/ha
  Plant response rating (scale of 0 to 100 where 0 is no effect and 100 is complete control): 10
foxtail, giant [3]; 31 g ai/ha
  Plant response rating (scale of 0 to 100 where 0 is no effect and 100 is complete control): 20
foxtail, giant [3]; 62 g ai/ha
  Plant response rating (scale of 0 to 100 where 0 is no effect and 100 is complete control): 25
foxtail, giant [3]; 125 g ai/ha
  Plant response rating (scale of 0 to 100 where 0 is no effect and 100 is complete control): 40
Barnyardgrass [4]; 31 g ai/ha
  Plant response rating, Barnyardgrass: 40
Barnyardgrass [4]; 125 g ai/ha
  Plant response rating, Barnyardgrass: 70
foxtail, giant [5]; 31 g ai/ha
  Plant response rating, Foxtail, Giant: 100
foxtail, giant [5]; 125 g ai/ha
  Plant response rating, Foxtail, Giant: 100
Wheat (winter wheat); 16 g ai/ha
  Plant response rating (scale of 0 to 100 where 0 is no effect and 100 is complete control): 5
Wheat (winter wheat); 31 g ai/ha
  Plant response rating (scale of 0 to 100 where 0 is no effect and 100 is complete control): 10
Wheat (winter wheat); 62 g ai/ha
  Plant response rating (scale of 0 to 100 where 0 is no effect and 100 is complete control): 10
Wheat (winter wheat); 125 g ai/ha
  Plant response rating (scale of 0 to 100 where 0 is no effect and 100 is complete control): 10
rice
  Plant response rating, Rice, Flood: 45
Oilseed rape; 16 g ai/ha
  Plant response rating (scale of 0 to 100 where 0 is no effect and 100 is complete control): 90
Oilseed rape; 31 g ai/ha
  Plant response rating (scale of 0 to 100 where 0 is no effect and 100 is complete control): 98
Oilseed rape; 62 g ai/ha
  Plant response rating (scale of 0 to 100 where 0 is no effect and 100 is complete control): 90
Oilseed rape; 125 g ai/ha
  Plant response rating (scale of 0 to 100 where 0 is no effect and 100 is complete control): 95
johnsongrass; 16 g ai/ha
  Plant response rating (scale of 0 to 100 where 0 is no effect and 100 is complete control): 25
johnsongrass; 31 g ai/ha
  Plant response rating (scale of 0 to 100 where 0 is no effect and 100 is complete control): 20
johnsongrass; 62 g ai/ha
  Plant response rating (scale of 0 to 100 where 0 is no effect and 100 is complete control): 35
johnsongrass; 125 g ai/ha
  Plant response rating (scale of 0 to 100 where 0 is no effect and 100 is complete control): 55
oat, wild; 16 g ai/ha
  Plant response rating (scale of 0 to 100 where 0 is no effect and 100 is complete control): 35
oat, wild; 31 g ai/ha
  Plant response rating (scale of 0 to 100 where 0 is no effect and 100 is complete control): 35
oat, wild; 62 g ai/ha
  Plant response rating (scale of 0 to 100 where 0 is no effect and 100 is complete control): 40
oat, wild; 125 g ai/ha
  Plant response rating (scale of 0 to 100 where 0 is no effect and 100 is complete control): 45
ragweed; 16 g ai/ha
  Plant response rating (scale of 0 to 100 where 0 is no effect and 100 is complete control): 85
ragweed; 31 g ai/ha
  Plant response rating (scale of 0 to 100 where 0 is no effect and 100 is complete control): 90
ragweed; 62 g ai/ha
  Plant response rating (scale of 0 to 100 where 0 is no effect and 100 is complete control): 70
ragweed; 125 g ai/ha
  Plant response rating (scale of 0 to 100 where 0 is no effect and 100 is complete control): 85
chickweed; 16 g ai/ha
  Plant response rating (scale of 0 to 100 where 0 is no effect and 100 is complete control): 90
chickweed; 31 g ai/ha
  Plant response rating (scale of 0 to 100 where 0 is no effect and 100 is complete control): 95
chickweed; 62 g ai/ha
  Plant response rating (scale of 0 to 100 where 0 is no effect and 100 is complete control): 95
chickweed; 125 g ai/ha
  Plant response rating (scale of 0 to 100 where 0 is no effect and 100 is complete control): 95
corn; 31 g ai/ha
  Plant response rating, Corn: 30
corn; 125 g ai/ha
  Plant response rating, Corn: 40
crabgrass, large; 16 g ai/ha
  Plant response rating (scale of 0 to 100 where 0 is no effect and 100 is complete control): 20
crabgrass, large; 31 g ai/ha
  Plant response rating (scale of 0 to 100 where 0 is no effect and 100 is complete control): 20
crabgrass, large; 62 g ai/ha
  Plant response rating (scale of 0 to 100 where 0 is no effect and 100 is complete control): 35
crabgrass, large; 125 g ai/ha
  Plant response rating (scale of 0 to 100 where 0 is no effect and 100 is complete control): 50
Pigweed [6]; 31 g ai/ha
  Plant response rating, Pigweed: 80
Pigweed [6]; 125 g ai/ha
  Plant response rating, Pigweed: 100
